Experimental data from patent US20080139558A1, “QUINOLONES USEFUL AS INDUCIBLE NITRIC OXIDE SYNTHASE INHIBITORS” (KALYPSYS, INC., priority 2006, published 2008).

These compounds were tested against T1, human iNOS (Homo sapiens, UniProt P35228) (assay: DAN assay of nitric oxide production (hiNOS)). Settings: enzyme expressed in HEK293 cells transiently transfected with human iNOS.
T1 construct: expressed in transfected cells; host or cells: HEK293
Format: cell-based
Method in brief: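 Human iNOS transiently expressed in HEK293 cells; NO production quantified as nitrite via 2,3-diaminonaphthalene reaction forming fluorescent naphthotriazole.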

T1 sequence (P35228 whole entry): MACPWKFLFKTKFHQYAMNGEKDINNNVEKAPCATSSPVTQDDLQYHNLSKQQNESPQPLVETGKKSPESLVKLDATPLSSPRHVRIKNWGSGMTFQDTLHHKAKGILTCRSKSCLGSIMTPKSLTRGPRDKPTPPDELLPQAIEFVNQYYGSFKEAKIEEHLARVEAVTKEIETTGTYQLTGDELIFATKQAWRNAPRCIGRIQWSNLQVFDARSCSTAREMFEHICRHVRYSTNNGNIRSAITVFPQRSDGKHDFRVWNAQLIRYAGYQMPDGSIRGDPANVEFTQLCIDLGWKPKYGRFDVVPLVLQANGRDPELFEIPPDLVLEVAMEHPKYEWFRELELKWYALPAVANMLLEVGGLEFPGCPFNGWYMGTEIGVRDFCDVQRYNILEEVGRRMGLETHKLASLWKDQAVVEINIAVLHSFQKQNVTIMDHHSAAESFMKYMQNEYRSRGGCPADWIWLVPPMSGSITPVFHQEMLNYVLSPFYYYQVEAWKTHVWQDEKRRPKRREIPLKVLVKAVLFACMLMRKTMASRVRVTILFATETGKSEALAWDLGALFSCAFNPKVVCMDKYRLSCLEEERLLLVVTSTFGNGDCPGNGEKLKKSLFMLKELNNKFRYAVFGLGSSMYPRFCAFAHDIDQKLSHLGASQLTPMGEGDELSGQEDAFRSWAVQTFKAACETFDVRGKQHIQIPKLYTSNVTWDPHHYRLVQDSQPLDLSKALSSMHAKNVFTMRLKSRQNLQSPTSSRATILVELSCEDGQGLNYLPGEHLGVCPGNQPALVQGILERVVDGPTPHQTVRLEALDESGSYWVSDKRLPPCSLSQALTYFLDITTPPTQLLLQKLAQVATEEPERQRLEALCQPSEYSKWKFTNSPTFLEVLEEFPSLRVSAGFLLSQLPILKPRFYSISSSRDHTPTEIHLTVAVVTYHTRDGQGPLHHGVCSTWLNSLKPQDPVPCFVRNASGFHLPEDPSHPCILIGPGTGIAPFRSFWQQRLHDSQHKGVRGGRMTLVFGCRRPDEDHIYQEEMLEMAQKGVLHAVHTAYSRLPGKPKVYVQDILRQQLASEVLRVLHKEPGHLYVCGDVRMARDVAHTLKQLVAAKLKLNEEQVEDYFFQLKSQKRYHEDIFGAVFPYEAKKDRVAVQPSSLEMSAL

Row | SMILES | EC50 [µM]
1 | Cc1ccccc1Cc1nc2ccccc2n1Cc1cc(=O)[nH]c2c(F)c(F)ccc12 [Example 216, 7,8-Difluoro-4-((2-(2-methylbenzyl)-1H-benzo[d]imidazol-1-yl)methyl)quinolin-2(1H)-one] | > 5
2 | O=c1cc(Cn2c(C3CCCC3)nc3ccccc32)c2ccc(F)c(F)c2[nH]1 [Example 209, 4-((2-Cyclopentyl-1H-benzo[d]imidazol-1-yl)methyl)-7,8-difluoroquinolin-2(1H)-one] | ≤ 5
3 | Cc1ccccc1-c1nc2ccccc2n1Cc1cc(=O)[nH]c2c(F)c(F)ccc12 [Example 240, 7,8-Difluoro-4-((2-o-tolyl-1H-benzo[d]imidazol-1-yl)methyl)quinolin-2(1H)-one] | > 5
4 | Cc1ncsc1CN(C(=O)c1cc(=O)[nH]c2c(F)cccc12)c1ccc(F)c(Cl)c1 [Example 104, N-(3-Chloro-4-fluorophenyl)-8-fluoro-N-((4-methylthiazol-5-yl)methyl)-2-oxo-1,2-dihydroquinoline-4-carboxamide] | > 5
5 | O=c1cc(Cn2c(-c3cccnc3)nc3ccccc32)c2ccccc2[nH]1 [Example 125, 4-((2-(Pyridin-3-yl)-1H-benzo[d]imidazol-1-yl)methyl)quinolin-2(1H)-one] | > 5
6 | Cc1ncsc1C(=O)N(Cc1cc(=O)[nH]c2c(F)c(F)ccc12)c1ccccn1 [Example 264, N-((7,8-Difluoro-2-oxo-1,2-dihydroquinolin-4-yl)methyl)-4-methyl-N-(pyridin-2-yl)thiazole-5-carboxamide] | > 5
7 | Cc1nc2ccccc2n1Cc1cc(=O)[nH]c2c(F)c(F)ccc12 [Example 190, 7,8-Difluoro-4-((2-methyl-1H-benzo[d]imidazol-1-yl)methyl)quinolin-2(1H)-one] | > 5
8 | O=c1cc(CN2CCN(c3ccccc3F)CC2)c2ccccc2[nH]1 [Example 106, 4-((4-(2-Fluorophenyl)piperazin-1-yl)methyl)quinolin-2(1H)-one] | > 5
9 | Cc1ncsc1C(=O)N(Cc1c(F)c(=O)[nH]c2c(F)c(F)ccc12)c1cccc(Cl)c1 [Example 115, N-(3-Chlorophenyl)-4-methyl-N-((3,7,8-trifluoro-2-oxo-1,2-dihydroquinolin-4-yl)methyl)thiazole-5-carboxamide] | ≤ 5
10 | COc1ccc(N(Cc2cc(=O)[nH]c3ccccc23)C(=O)c2ccco2)cc1 [Example 10, N-(4-Methoxyphenyl)-N-[(2-oxo-1,2-dihydroquinolin-4-yl)methyl]-2-furamide] | ≤ 5
11 | O=C(c1ccco1)N(Cc1cc(=O)[nH]c2ccc(F)cc12)c1ccccc1 [Example 18, N-((6-Fluoro-2-oxo-1,2-dihydroquinolin-4-yl)methyl)-N-phenylfuran-2-carboxamide] | > 5
12 | Cc1c(-c2ccccc2)nc(C(C)C)n1Cc1cc(=O)[nH]c2c(F)c(F)ccc12 [Example 258, 7,8-Difluoro-4-((2-isopropyl-5-methyl-4-phenyl-1H-imidazol-1-yul)methyl)quinolin-2(1H)-one] | > 5
13 | Cc1ncsc1C(=O)N(Cc1cc(=O)[nH]c2cc(F)c(F)cc12)c1cccc(Cl)c1 [Example 109, N-(3-Chlorophenyl)-N-((6,7-difluoro-2-oxo-1,2-dihydroquinolin-4-yl)methyl)-4-methylthiazole-5-carboxamide] | ≤ 5
14 | Cc1ncsc1C(=O)N(Cc1cc(=O)[nH]c2cccc(F)c12)c1cccc(Cl)c1 [Example 111, N-(3-Chlorophenyl)-N-((5-fluoro-2-oxo-1,2-dihydroquinolin-4-yl)methyl)-4-methylthiazole-5-carboxamide] | ≤ 5
15 | CC(C)(C)c1nc2ccccc2n1Cc1cc(=O)[nH]c2c(F)c(F)ccc12 [Example 202, 4-((2-tert-Butyl-1H-benzo[d]imidazol-1-yl)methyl)-7,8-difluoroquinolin-2(1H)-one] | > 5
16 | Cc1cccc(C(=O)N(Cc2cc(=O)[nH]c3c(F)cccc23)c2cccc(Cl)c2)c1 [Example 58, N-(3-Chlorophenyl)-N-((8-fluoro-2-oxo-1,2-dihydroquinolin-4-yl)methyl)-3-methylbenzamide] | > 5
17 | O=C1CCN(c2ccccc2)N1Cc1cc(=O)[nH]c2c(F)c(F)ccc12 [Example 252, 7,8-Difluoro-4-((5-oxo-2-phenylpyrazolidin-1-yl)methyl)quinolin-2(1H)-one] | ≤ 5
18 | O=c1cc(Cn2c(N3CCOCC3)nc3ccccc32)c2ccc(F)c(F)c2[nH]1 [Example 200, 7,8-Difluoro-4-((2-morpholino-1H-benzo[d]imidazol-1-yl)methyl)quinolin-2(1H)-one] | > 5
19 | Cc1nc(N2CCOCC2)sc1C(=O)N(Cc1cc(=O)[nH]c2ccccc12)c1ccccc1 [Example 101, 4-Methyl-2-morpholino-N-((2-oxo-1,2-dihydroquinolin-4-yl)methyl)-N-phenylthiazole-5-carboxamide] | ≤ 5
20 | Cc1ncccc1C(=O)N(Cc1cc(=O)[nH]c2c(F)cccc12)c1cccc(Cl)c1 [Example 71, N-(3-Chlorophenyl)-N-((8-fluoro-2-oxo-1,2-dihydroquinolin-4-yl)methyl)-2-methylnicotinamide] | > 5
21 | O=c1cc(Cn2c(-c3ccccc3Cl)nc3ccccc32)c2ccc(F)c(F)c2[nH]1 [Example 241, 4-((2-(2-Chlorophenyl)-1H-benzo[d]imidazol-1-yl)methyl)-7,8-difluoroquinolin-2(1H)-one] | ≤ 5
22 | O=c1cc(Cn2c(C3CCCO3)nc3ccccc32)c2ccc(F)c(F)c2[nH]1 (racemic) [Example 250, 7,8-Difluoro-4-((2-(tetrahydrofuran-2-yl)-1H-benzo[d]imidazol-1-yl)methyl)quinolin-2(1H)-one] | ≤ 5
23 | O=C(c1cccc(F)c1)N(Cc1cc(=O)[nH]c2c(F)cccc12)c1cccc(Cl)c1 [Example 55, N-(3-Chlorophenyl)-3-fluoro-N-((8-fluoro-2-oxo-1,2-dihydroquinolin-4-yl)methyl)benzamide] | > 5
24 | O=c1cc(Cn2c(-c3ccc(F)cc3)nc3ccccc32)c2ccc(F)c(F)c2[nH]1 [Example 197, 7,8-Difluoro-4-((2-(4-fluorophenyl)-1H-benzo[d]imidazol-1-yl)methyl)quinolin-2(1H)-one] | > 5
25 | N#Cc1cccc(C(=O)N(Cc2cc(=O)[nH]c3c(F)cccc23)c2cccc(Cl)c2)c1 [Example 65, N-(3-Chlorophenyl)-3-cyano-N-((8-fluoro-2-oxo-1,2-dihydroquinolin-4-yl)methyl)benzamide] | > 5
26 | O=c1cc(Cn2c(-c3cncs3)nc3ccccc32)c2ccc(F)c(F)c2[nH]1 [Example 191, 7,8-Difluoro-4-((2-(thiazol-5-yl)-1H-benzo[d]imidazol-1-yl)methyl)quinolin-2(1H)-one] | ≤ 5
27 | Cc1ccc2[nH]c(=O)c(CN(Cc3ccccc3)c3ccc(C#N)cn3)cc2c1 [Example 103, 6-(Benzyl((6-methyl-2-oxo-1,2-dihydroquinolin-3-yl)methyl)amino)nicotinonitrile] | > 5
28 | Cc1ncsc1C(=O)N(Cc1cc(=O)[nH]c2c(F)c(F)ccc12)c1ccccc1F [Example 90, N-(2-Fluorophenyl)-N-((7,8-fluoro-2-oxo-1,2-dihydroquinolin-4-yl)methyl)-4-methylthiazole-5-carboxamide] | ≤ 5
29 | Cn1cncc1C(=O)N(Cc1cc(=O)[nH]c2c(F)cccc12)c1cccc(Cl)c1 [Example 48, N-(3-Chlorophenyl)-N-((8-fluoro-2-oxo-1,2-dihydroquinolin-4-yl)methyl)-1-methyl-1H-imidazole-5-carboxamide] | > 5
30 | Cc1ncsc1C(=O)N(Cc1cc(=O)[nH]c2c(F)ccc(C)c12)c1cccc(Cl)c1 [Example 50, N-(3-Chlorophenyl)-N-((8-fluoro-5-methyl-2-oxo-1,2-dihydroquinolin-4-yl)methyl)-4-methylthiazole-5-carboxamide] | > 5
